Measurements from PMC7468108 (Communications Biology, 2020).

Experiments:
hIAPP [1] = molecular target: T1, hIAPP (Homo sapiens, UniProt P10997); assay: ThT-binding assay, inhibition of hIAPP aggregation; type: biochemical; conditions: for Normalized ThT fluorescence: hIAPP (10 µM) : molecule 1:5, average of three data sets; for % amyloid of hIAPP: hIAPP 10 µM
T1 construct: hIAPP is a 37-amino acid neuroendocrine peptide hormone; purchased Peptide 2.0 (USA)
T1 sequence (P10997 34-70 limits assumed): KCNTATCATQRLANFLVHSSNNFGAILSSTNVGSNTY
Procedure: A similar inhibitory effect by the hybrid molecules was found toward hIAPP aggregation. […] Upon co-incubation of hIAPP with the hybrid molecules, a dose-response inhibition of hIAPP fibril formation was observed (Fig. 2d, e and Supplementary Fig. 3). […] Also, for IAPP, the marginally stronger inhibitory effect of WGalNAc was statistically significant (Supplementary Fig. 2b).
The resulting thin films were dissolved in PBS (100 mM, pH 7.4) and sonicated for 5 min to get a stock concentration of 50 µM, which immediately diluted to required concentration for an experiment. Stock solutions of ThT (4 mM in PBS) and hybrid molecules (10 mM in PBS) were prepared. All the stock solutions were diluted according to the requirement.
The experiment was performed according to the previous report. […] Kinetics fluorescence data were collected at 37 °C in triplicate using Infinite M200 microplate reader (Tecan, Switzerland), with measurements acquired at 15 min intervals. Excitation and emission wavelengths were set at 440 nm and 485 nm, respectively.

Aβ42 = molecular target: T2, Aβ42 (Homo sapiens, UniProt P05067); assay: Congo red birefringence of Aβ42 fibrils formed with the tested molecules; conditions: 5-fold excess of compound
T2 construct: purchased rPeptide (USA)
Source text: These fibrils also generated the amyloid specific gold-green birefringence upon staining with Congo red (Fig. 3, bottom panel and Supplementary Fig. 6)[74].

[2] = XTT assay, cytotoxicity of the hybrid molecules towards HEK-293; type: cell-based; conditions: human, HEK-293 cells
Procedure: To this end, we first tested whether the hybrid molecules carried any cytotoxicity themselves. […] No considerable toxicity (≥95% viability) was caused by the hybrid molecules towards either cell line, even at the highest concentration of 250 µM (Fig. 8).
The SH-SY5Y and HEK-293 cell lines (2 × 10^5 cells/mL) were cultured in 96-well tissue microplates (100 µL/well) and allowed to adhere overnight at 37 °C. The conjugate molecules were dissolved in DMEM:nutrient mixture F12 (Ham’s) (1:1) (Biological Industries, Israel) at different concentrations. The negative control was prepared as medium without hybrid molecules and treated in the same manner. 100 µL of medium with or without hybrid molecules were added to each well in triplicate. Following incubation for 24 h at 37 °C, cell viability was evaluated using the 2,3-bis(2-methoxy-4-nitro-5-sulfophenyl)-2H-tetrazolium-5-carboxanilide (XTT) cell proliferation assay kit (Biological Industries, Israel) according to the manufacturer’s instructions. Briefly, 100 µL of activation reagent was added to 5 mL of XTT reagent, followed by the addition of 50 µL of activated-XTT solution to each well. After 2 h incubation at 37 °C, color intensity was measured using an ELISA microplate reader at 450 nm and 630 nm. Results are presented as mean and mean standard error. Each experiment was repeated minimum three times.

hIAPP [3] = molecular target: T1, hIAPP; assay: TEM of hIAPP fibrils formed with the tested molecules; conditions: 5-fold molar excess of compound
Procedure: When hIAPP was incubated with 5-fold molar excess of the hybrid molecules, no typical fibrillar assemblies were observed, rather some amorphous aggregates of different sizes were detected (Fig. 4, upper panel).
Samples (10 µL) were placed for 2 min on 400-mesh copper grids covered with carbon-stabilized Formvar film (Electron Microscopy Sciences (EMS), Hatfield, PA). Excess fluid was removed, and grids were negatively stained with 2% uranyl acetate solution (10 µL) for 2 min. After excess fluid removal, the samples were visualized using a JEM-1400 TEM (JEOL), operated at 80 kV.

T2 sequence (P05067 672-713 limits assumed): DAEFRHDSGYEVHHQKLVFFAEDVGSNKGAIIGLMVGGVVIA

Structure (SMILES): NC(Cc1c[nH]c2ccccc12)C(=O)NC(Cc1c[nH]c2ccccc12)C(=O)O (stereo not shown) [WW]
- Normalized ThT fluorescence (hIAPP [1]; Time 0 h): 29.978
- Normalized ThT fluorescence (hIAPP [1]; Time 0.25 h): -2.428
- Normalized ThT fluorescence (hIAPP [1]; Time 0.5 h): 312.254
- Normalized ThT fluorescence (hIAPP [1]; Time 0.75 h): 629.363
- Normalized ThT fluorescence (hIAPP [1]; Time 1 h): 980.330
- Normalized ThT fluorescence (hIAPP [1]; Time 1.25 h): 1609.153
- Normalized ThT fluorescence (hIAPP [1]; Time 1.5 h): 2335.279
- Normalized ThT fluorescence (hIAPP [1]; Time 1.75 h): 2857.634
- Normalized ThT fluorescence (hIAPP [1]; Time 2 h): 3166.885
- Normalized ThT fluorescence (hIAPP [1]; Time 2.25 h): 3521.809
- Normalized ThT fluorescence (hIAPP [1]; Time 2.5 h): 3762.743
- Normalized ThT fluorescence (hIAPP [1]; Time 2.75 h): 4063.191
- Normalized ThT fluorescence (hIAPP [1]; Time 3 h): 4256.338
- Normalized ThT fluorescence (hIAPP [1]; Time 3.25 h): 4441.516
- Normalized ThT fluorescence (hIAPP [1]; Time 3.5 h): 4588.861
- Normalized ThT fluorescence (hIAPP [1]; Time 3.75 h): 4641.496
- Normalized ThT fluorescence (hIAPP [1]; Time 4 h): 4783.902
- Normalized ThT fluorescence (hIAPP [1]; Time 4.25 h): 5155.140
- Normalized ThT fluorescence (hIAPP [1]; Time 4.5 h): 5083.691
- Normalized ThT fluorescence (hIAPP [1]; Time 4.75 h): 5147.945
- Normalized ThT fluorescence (hIAPP [1]; Time 5 h): 5383.622
- Normalized ThT fluorescence (hIAPP [1]; Time 5.25 h): 5413.206
- Normalized ThT fluorescence (hIAPP [1]; Time 5.5 h): 5636.242
- Normalized ThT fluorescence (hIAPP [1]; Time 5.75 h): 5718.561
- Normalized ThT fluorescence (hIAPP [1]; Time 6 h): 5762.151
- Normalized ThT fluorescence (hIAPP [1]; Time 6.25 h): 5998.572
- Normalized ThT fluorescence (hIAPP [1]; Time 6.5 h): 6267.216
- Normalized ThT fluorescence (hIAPP [1]; Time 6.75 h): 6187.949
- Normalized ThT fluorescence (hIAPP [1]; Time 7 h): 6251.809
- Normalized ThT fluorescence (hIAPP [1]; Time 7.25 h): 6421.160
- Normalized ThT fluorescence (hIAPP [1]; Time 7.5 h): 6518.393
- Normalized ThT fluorescence (hIAPP [1]; Time 7.75 h): 6603.373
- Normalized ThT fluorescence (hIAPP [1]; Time 8 h): 6737.364
- Normalized ThT fluorescence (hIAPP [1]; Time 8.25 h): 6750.786
- Normalized ThT fluorescence (hIAPP [1]; Time 8.5 h): 6792.841
- Normalized ThT fluorescence (hIAPP [1]; Time 8.75 h): 6865.131
- Normalized ThT fluorescence (hIAPP [1]; Time 9 h): 6824.556
- Normalized ThT fluorescence (hIAPP [1]; Time 9.25 h): 6905.238
- Normalized ThT fluorescence (hIAPP [1]; Time 9.5 h): 6910.878
- Normalized ThT fluorescence (hIAPP [1]; Time 9.75 h): 6951.940
- Normalized ThT fluorescence (hIAPP [1]; Time 10 h): 6938.219
- Normalized ThT fluorescence (hIAPP [1]; Time 10.25 h): 6978.295
- Normalized ThT fluorescence (hIAPP [1]; Time 10.5 h): 7036.631
- Normalized ThT fluorescence (hIAPP [1]; Time 10.75 h): 7131.130
- Normalized ThT fluorescence (hIAPP [1]; Time 11 h): 7205.208
- Normalized ThT fluorescence (hIAPP [1]; Time 11.25 h): 7201.975
- Normalized ThT fluorescence (hIAPP [1]; Time 11.5 h): 7247.388
- Normalized ThT fluorescence (hIAPP [1]; Time 11.75 h): 7228.342
- Normalized ThT fluorescence (hIAPP [1]; Time 12 h): 7216.738
- Normalized ThT fluorescence (hIAPP [1]; Time 12.25 h): 7265.266
- Normalized ThT fluorescence (hIAPP [1]; Time 12.5 h): 7198.053
- Normalized ThT fluorescence (hIAPP [1]; Time 12.75 h): 7266.511
- Normalized ThT fluorescence (hIAPP [1]; Time 13 h): 7230.088
- Normalized ThT fluorescence (hIAPP [1]; Time 13.25 h): 7204.082
- Normalized ThT fluorescence (hIAPP [1]; Time 13.5 h): 7254.393
- Normalized ThT fluorescence (hIAPP [1]; Time 13.75 h): 7295.955
- Normalized ThT fluorescence (hIAPP [1]; Time 14 h): 7250.976
- Normalized ThT fluorescence (hIAPP [1]; Time 14.25 h): 7276.851
- Normalized ThT fluorescence (hIAPP [1]; Time 14.5 h): 7406.119
- Normalized ThT fluorescence (hIAPP [1]; Time 14.75 h): 7447.878
- Normalized ThT fluorescence (hIAPP [1]; Time 15 h): 7365.784
- % amyloid of hIAPP (hIAPP [1]; molar ratio hIAPP:tested molecule 1:1): 105.600%
- % amyloid of hIAPP (hIAPP [1]; molar ratio hIAPP:tested molecule 1:5): 115.433%
- % amyloid of hIAPP (hIAPP [1]; molar ratio hIAPP:tested molecule 5:1): 99.082%
- inhibition of hIAPP fibril formation (ThT), in words (hIAPP [1]; molar ratios 5:1, 1:1, 1:5): No inhibitory effect
- Congo red birefringence of Aβ42, in words (Aβ42): intense gold-green birefringence
- viability at 24 h, 0.2 µM ([2]; 0.2µM): 93.6%
- viability at 24 h, 1 µM ([2]; 1 µM): 98.4%
- viability at 24 h, 10 µM ([2]; 10 µM): 94.3%
- viability at 24 h, 50 µM ([2]; 50 µM): 84.5%
- viability at 24 h, 250 µM ([2]; 250 µM): 83.7%
- viability at 24 h, 250 µM ([2]; HEK-293, 250 µM, 24 h): ~83%
- hIAPP fibril morphology (TEM), in words (hIAPP [3]): clearly visible in a more densely packed network
